Laboratory results: patent US7615361B2, “Toxicity screening methods” (Ceetox, Inc., priority 2006, dated 2009)

What was measured:
MTT reduction = format: cell-based, rat; settings: rat
Protocol: (§1) One test compound (Compound A) was received as dry powder and evaluated for potential cytotoxicity in a battery of in vitro assays. The compound was tested using both rat cardiomyocytes (CM) from rat neonates and a rat hepatoma (H4IIE) cell line. […] The cell supernatant or the cells themselves were harvested for biochemical analysis. General cytotoxicity was evaluated by monitoring membrane integrity, mitochondrial function, cell proliferation, oxidative stress, and apoptosis. In addition, interaction with P-glycoprotein (PgP) on H4IIE cells and solubility of the test compound were also assessed. The means of each exposure group (n=3-7) were calculated for each assay performed.
(§2) Experimental Protocol: The test compound was provided and stored at 4° C. until needed. Dosing solutions were prepared in complete culture medium. The rat hepatoma (H4IIE) cell line was used as the test system.
Tetrazolium Dye Reduction: 3-[4,5-dimethylthiazol-2-yl]

[1] = Cell number (propidium iodide); format: cell-based, rat; settings: rat
Protocol: as §1, §2
Cell Proliferation: Cell proliferation in each well was measured with propidium iodide (PI). This specific nucleic acid binding dye fluoresces when intercalated within the nucleic acids. The 15 nm shift enhances PI fluorescence approximately 20 times while the excitation maxima are shifted 30-40 nm. During method development experiments, it was determined that Triton-X-100 was the best solution to permeabilize the H4IIE cells thereby allowing the PI access to intracellular RNA and DNA. Fluorescence was measured using a Packard Fusion plate reader or equivalent reader at 540 nm excitation and 610 nm emission.
Cell Proliferation: After incubation, the test compound was removed and Triton X-100 solution containing propidium iodide is added. The plate was incubated and read on a fluorescent plate reader. Data was collected as relative fluorescent units (RFU). The blank was subtracted from the final well RFU. It represents the average of the first and last columns which contain no cells on that particular plate. The controls are untreated cells allowed to grow on the same plate. The compounds are represented by several separate RFU data points for each of the tested concentrations. The percent change relative to controls was calculated by dividing the average RFU by the control cell RFU and multiplying by 100.

rat cardiomyocytes = assay: Membrane lipid peroxidation (8-isoprostane ELISA); format: cell-based
Protocol: (§3) One test compound (Compound A) was received as dry powder and evaluated for potential cytotoxicity in a battery of in vitro assays. The compound was tested using both rat cardiomyocytes (CM) from rat neonates and a rat hepatoma (H4IIE) cell line. […] Camptothecin and rotenone were included as positive control compounds. The cell supernatant or the cells themselves were harvested for biochemical analysis. General cytotoxicity was evaluated by monitoring membrane integrity, mitochondrial function, cell proliferation, oxidative stress, and apoptosis. In addition, interaction with P-glycoprotein (PgP) on H4IIE cells and solubility of the test compound were also assessed. The means of each exposure group (n=3-7) were calculated for each assay performed. Intra assay variation well-to-well was typically less than 10% with plate to plate variation typically less than 20%.

[2] = Intracellular total glutathione (GSH); format: cell-based, rat; settings: rat
Protocol: as §1

H4IIE cells = assay: Membrane lipid peroxidation (8-isoprostane ELISA); format: cell-based, rat
Protocol: as §3, §2

[3] = Intracellular total glutathione (GSH); format: cell-based, rat; settings: rat; remark: listed apart in the source
Protocol: as §1, §2

[4] = MemTox membrane leakage (AK / α-GST); format: cell-based, rat; settings: rat
Protocol: as §1, §2
(§4) Membrane Leakage (α-Glutathione S-transferase and/or Adenylate Kinase): The presence of Adenylate Kinase (AK) or α-Glutathione S-transferase (α-GST), both enzyme leakage markers, was measured in the culture medium using an activity assay for Adenylate Kinase and/or an ELISA assay for α-GST. At the end of the exposure period, the medium covering the cells in each well was removed and placed into new 96-well plates with appropriate labeling. […] Luminescence (AK) values were measured with a Packard Fusion or equivalent plate reader, and absorbance (α-GST) values were measured with a Packard SpectraCount™ or equivalent reader at 450 nm and reference absorbance at 650 nm.
(§5) Membrane Leakage (α-Glutathione S-transferase and/or Adenylate Kinase): Leakage of Adenylate Kinase or α-GST from the cell into the culture medium was determined by collecting the culture medium at the end of the exposure period. Thus, the values measured represent total enzyme leakage lost over the exposure period. The control for 100% dead or maximum enzyme release was based on cells treated with 1 mM digitonin at the time of dosing. Percent dead cells relative to digitonin treated cells was determined and then subtracted from 100% to yield the percent live cells.

Intracellular ATP levels = format: cell-based, rat; settings: rat
Protocol: as §1, §2
Intracellular ATP Levels: Cellular Adenosine triphosphate (ATP) was determined with an assay based on a reaction between ATP+D-luciferin+oxygen catalyzed by luciferase to yield Oxyluciferin+AMP+PPi+CO2+light. The emitted light is proportional to the amount of ATP present. […] In addition, a unique cell lysis reagent inhibits endogenous ATPases and therefore stabilizes cellular ATP by preventing its degradation to ADP. ATP is present in all-living cells and declines rapidly upon cell death. In addition, this assay in combination with the MTT assay provides an indicator of mitochondrial activity and energy status of the cell.
Plates were analyzed immediately or stored at −20° C. until needed. On the day of analysis, the plates were thawed and calibration curve prepared with ATP in the same liquid matrix as samples. ATP was quantified by adding ATP substrate solution and then reading luminescence on a Packard Fusion Luminescence or equivalent plate reader.
Intracellular ATP Levels: ATP levels in treated cells could be determined by using the regression coefficients obtained from the linear regression analysis of the calibration curve. Thus, values could be expressed as pmoles ATP/million cells. Background corrected luminescence was used to determine percent change relative to controls by dividing treated values by control values and multiplying by 100.

[5] = MemTox membrane leakage (AK / α-GST); format: cell-based, rat
Protocol: as §1, §4, §5

[6] = H4IIE rat hepatoma cells, H4IIE, 24 HR exposure, read-out: MTT TC50
[7] = H4IIE rat hepatoma cells, H4IIE, 24 HR exposure, read-out: Cell Number TC50
[8] = neonatal rat cardiomyocytes, CM, 24 HR, read-out: Total GSH TC50
[9] = H4IIE rat hepatoma cells, H4IIE, 24 HR, read-out: Total GSH TC50
[10] = H4IIE rat hepatoma cells, H4IIE, 24 HR exposure, read-out: MemTox TC50
[11] = H4IIE rat hepatoma cells, H4IIE, 24 HR exposure, read-out: ATP TC50
[12] = neonatal rat cardiomyocytes, rat cardiomyocytes (CM), 24 HR exposure, read-out: MemTox TC50

Structure (SMILES)	Membrane Lipid Peroxidation (rat cardiomyocytes; rat, 24 h)	CC50 at 24 h [2] [µM]	Membrane Lipid Peroxidation (H4IIE cells; rat, 24 h)	CC50 at 24 h ([5]; rat) [µM]	CC50 at 24 h (MTT reduction; MTT TC50) [µM]	CC50 at 24 h ([1]; Cell Number TC50) [µM]	CC50 at 24 h ([3]; Total GSH TC50) [µM]	CC50 at 24 h ([4]; MemTox TC50) [µM]	CC50 at 24 h (Intracellular ATP levels; ATP TC50) [µM]	further results
COc1cccc2c1C(=O)c1c(O)c3c(c(O)c1C2=O)C[C@@](O)(C(C)=O)C[C@@H]3O[C@H]1C[C@H](N)[C@H](O)[C@H](C)O1 [DAUNORUBICIN, daunorubicin]	0	< 1	0	4	–	–	–	–	–	CC50 at 24 h (MTT reduction): 14 µM; CC50 at 24 h [1]: 8 µM; CC50 at 24 h [3]: 16 µM; CC50 at 24 h [4]: 41 µM; CC50 at 24 h (Intracellular ATP levels): 7 µM
C=C(C)[C@H]1Cc2c(ccc3c2O[C@@H]2COc4cc(OC)c(OC)cc4[C@@H]2C3=O)O1 [ROTENONE, Rotenone]	–	–	–	–	–	–	–	–	–	CC50 at 24 h (MTT reduction; H4IIE, 24 HR exposure, read-out: MTT TC50): 0.07 µM; CC50 at 24 h ([1]; H4IIE, 24 HR exposure, read-out: Cell Number TC50): 0.04 µM; Membrane Lipid Peroxidation (rat cardiomyocytes; CM, 24 HR): 3 (3 = Concentration related increase with a maximum value ≧30 pg/mL); CC50 at 24 h ([2]; CM, 24 HR, read-out: Total GSH TC50): 7 µM; Membrane Lipid Peroxidation (H4IIE cells; H4IIE, 24 HR): 2 (2 = Concentration related increase with maximum values ≧15 pg/mL); CC50 at 24 h ([3]; H4IIE, 24 HR, read-out: Total GSH TC50): 0.05 µM; CC50 at 24 h ([4]; H4IIE, 24 HR exposure, read-out: MemTox TC50): 100 µM; CC50 at 24 h (Intracellular ATP levels; H4IIE, 24 HR exposure, read-out: ATP TC50): 0.04 µM; CC50 at 24 h ([5]; rat cardiomyocytes (CM), 24 HR exposure, read-out: MemTox TC50): 56 µM
CC(=O)[C@]1(O)Cc2c(O)c3c(c(O)c2[C@@H](O[C@H]2C[C@H](N)[C@H](O)[C@H](C)O2)C1)C(=O)c1ccccc1C3=O [IDARUBICIN, idarubicin]	0	< 1	0	< 1	3	4	4	30	2	–
O=C1Nc2ccc(Cl)cc2[C@@](C#CC2CC2)(C(F)(F)F)O1 [EFAVIRENZ, efavirenz]	–	83	0	69	161	169	170	181	162	–
COc1cccc2c1C(=O)c1c(O)c3c(c(O)c1C2=O)C[C@@](O)(C(=O)CO)C[C@@H]3O[C@H]1C[C@H](N)[C@@H](O)[C@H](C)O1 [EPIRUBICIN, epirubicin]	0	13	0	35	81	31	52	37	32	–
COc1cccc2c1C(=O)c1c(O)c3c(c(O)c1C2=O)C[C@@](O)(C(=O)CO)C[C@@H]3O[C@H]1C[C@H](N)[C@H](O)[C@H](C)O1 [ADRIAMYCIN, Adriamycin]	0	1	0	7	13	18	28	–	–	Membrane Lipid Peroxidation (rat cardiomyocytes; rat, 1 h): 0; Membrane Lipid Peroxidation (rat cardiomyocytes; rat, 3 h): 0; Membrane Lipid Peroxidation (rat cardiomyocytes; rat, 6 h): 0; CC50 at 1 h [2]: > 300 µM; CC50 at 3 h [2]: 61 µM; CC50 at 6 h [2]: 23 µM; CC50 at 1 h ([5]; rat): > 300 µM; CC50 at 3 h ([5]; rat): > 300 µM; CC50 at 6 h ([5]; rat): 40 µM
O=C1c2c(O)ccc(O)c2C(=O)c2c(NCCNCCO)ccc(NCCNCCO)c21 [MITOXANTRONE, mitoxantrone]	0	< 1	0	2	> 300	< 1	247	> 300	5	–
Nc1nc(NC2CC2)c2ncn([C@H]3C=C[C@@H](CO)C3)c2n1 [ABACAVIR, abacavir]	–	> 300	0	> 300	> 300	> 300	213	> 300	154	–
COc1cccc2c1C(=O)c1c(O)c3c(c(O)c1C2=O)C[C@@](O)(C(=O)CO)C[C@@H]3O[C@H]1C[C@H](N)[C@H](O[C@@H]2CCCCO2)[C@H](C)O1 [PIRARUBICIN, pirarubicin]	–	–	–	–	–	–	–	–	–	CC50 at 24 h (MTT reduction; [6]): 16 µM; CC50 at 24 h [1, 7]: 8 µM; Membrane Lipid Peroxidation (rat cardiomyocytes; CM, 24 HR): 0; CC50 at 24 h [2, 8]: 6 µM; Membrane Lipid Peroxidation (H4IIE cells; H4IIE, 24 HR): 0; CC50 at 24 h [3, 9]: 17 µM; CC50 at 24 h [4, 10]: 50 µM; CC50 at 24 h (Intracellular ATP levels; [11]): 8 µM; CC50 at 24 h [5, 12]: 6 µM
CC[C@@]1(O)C(=O)OCc2c1cc1n(c2=O)Cc2cc3ccccc3nc2-1 [CAMPTOTHECIN, Camptothecin]	–	–	–	–	–	–	–	–	–	CC50 at 24 h (MTT reduction; [6]): 1 µM; CC50 at 24 h [1, 7]: 4 µM; Membrane Lipid Peroxidation (rat cardiomyocytes; CM, 24 HR): 0; CC50 at 24 h [2, 8]: > 300 µM; Membrane Lipid Peroxidation (H4IIE cells; H4IIE, 24 HR): 1 (1 = Modest increase with maximum values ≦15 pg/mL); CC50 at 24 h [3, 9]: 3 µM; CC50 at 24 h [4, 10]: > 300 µM; CC50 at 24 h (Intracellular ATP levels; [11]): 1 µM; CC50 at 24 h [5, 12]: > 300 µM
Cc1cccc(C)c1OCC(=O)N[C@@H](Cc1ccccc1)[C@@H](O)C[C@H](Cc1ccccc1)NC(=O)[C@H](C(C)C)N1CCCNC1=O [LOPINAVIR, lopinavir]	0	69	0	76	184	> 300	99	> 300	195	–
CC(C)Nc1cccnc1N1CCN(C(=O)c2cc3cc(NS(C)(=O)=O)ccc3[nH]2)CC1 [DELAVIRDINE, delavirdine]	0	> 300	–	239	218	> 300	96	> 300	257	–
